Converted amounts (≈) assume the structure as drawn. Where a SMILES comes first, the peptide text is derived from it. Where no end group is shown, it is not given here. [ ]: non-standard residue; d: D form. Cha = N[C@@H](CC1CCCCC1)C(=O)O; NMeL = CN[C@@H](CC(C)C)C(=O)O; Orn = NCCC[C@H](N)C(=O)O
Assays:
E. coli 45849 = experiment: Growth inhibition assay (MIC); assay type: cell-based, Escherichia coli; conditions: multidrug resistant strain; 1% TSB, 37° C., 20 hrs
Procedure: (§1) The minimal inhibition concentrations (MIC) of the apidaecin-derived peptides and peptide-derivatives were determined by a growth inhibition assay using a serial peptide dilution in sterilized round-bottom 96-well plates (polystyrene, U-bottom, Greiner Bio-One GmbH) with a final volume of 100 μL per well. The bacteria, e.g., E. coli BL21 A1, were grown in nutrient broth (NB, Carl Roth GmbH+Co. KG, Karlsruhe, Germany) at 37° C. over night. To each well of the 96-well plate, 50 μL of the overnight culture adjusted to 5×10^6 CFU/mL in 1% TSB were added. Lyophilized peptides and peptidomimetics were dissolved in 1% TSB (tryptic soy broth) or water to give a final concentration of 250 μg/mL. Fifty μL of the peptide or peptidomimetics solution were added to the first well of a row on the plate and mixed. Fifty μL of the first well containing the peptide solution were transferred to the second well, mixed and again 50 μL transferred to the next well and so on. Thereby, a two-fold dilution series was obtained starting at 250 μg/mL in the first well down to 120 ng/mL in the 12th well of a row giving a final peptide or peptidomimetics concentration from 125 μg/mL (well 1) to 60 ng/mL (well 12). Plates were incubated at 37° C. for 20 hrs. The absorbance was measured at 595 nm using a TECAN micro plate spectrophotometer (Tecan, Germany). All peptides and peptidomimetics were measured in triplicates. Sterilized water was used as a negative control.
(§2) The following multidrug resistant bacteria strains were tested: • Eschericha coli 45849 and D31, • Klebsiella pneumoniae 123132 and K6, • Salmonella typhi S5 and Salmonella enterica subsp. enterica serovar Typhimurium (ATCC 700408), • Rhizobium radiobacter (ATCC 15955 deposited as Agrobacterium tumefaciens).

E. coli D31 = assay type: cell-based, Escherichia coli; conditions: D31, 20 h
Procedure: as §1, §2

S. typhi S5 = assay type: cell-based, Salmonella typhi; conditions: S5, 20 h
Procedure: as §1, §2

[1] = system: R. radiobatter ATCC 15955; experiment: Growth inhibition assay (MIC); assay type: cell-based, Rhizobium radiobacter; conditions: multidrug resistant strain; 1% TSB, 37° C., 20 hrs
Procedure: as §1, §2

[2] = system: S. enterica subsp. Enterica serovar. typhi G10215 ATCC 700408; assay type: cell-based, Salmonella enterica; conditions: ATCC 700408, 20 h
Procedure: as §1, §2

[3] = system: K. Pneumonia K6, ATCC 700603; experiment: Growth inhibition assay (MIC); assay type: cell-based, Klebsiella pneumoniae; conditions: multidrug resistant strain; 1% TSB, 37° C., 20 hrs
Procedure: as §1, §2

K. Pneumonia 123132 = experiment: Growth inhibition assay (MIC); assay type: cell-based, Klebsiella pneumoniae; conditions: multidrug resistant strain; 1% TSB, 37° C., 20 hrs
Procedure: as §1, §2

E. coli BL 21 AI = experiment: Growth inhibition assay (MIC); assay type: cell-based, Escherichia coli; conditions: 1% TSB, 37° C., 20 hrs
Summary of the method: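 Bacteria grown overnight in NB at 37° C. were adjusted to 5×10^6 CFU/mL in 1% TSB and mixed 1:1 with a two-fold peptide series (final 125 μg/mL–60 ng/mL). After 20 hrs at 37° C., A595 was read; triplicates.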

For `CC[C@H](C)[C@H](NC(=O)[C@H](Cc1ccc(O)cc1)NC(=O)[C@@H](NC(=O)[C@@H]1CCCN1C(=O)[C@H](CCCNC(=N)N)NC(=O)[C@H](CC(N)=O)NC(=O)[C@H](CC(N)=O)NC(=O)CN)C(C)C)C(=O)N1CCC[C@H]1C(=O)N[C@@H](CCCNC(=N)N)C(=O)N1CCC[C@H]1C(=O)N[C@@H](CCCNC(=N)N)C(=O)N1CCC[C@H]1C(=O)N1CCC[C@H]1C(=O)N[C@@H](Cc1c[nH]cn1)C(=O)N1CCC[C@H]1C(=O)N[C@@H](CCCNC(=N)N)C(=O)N[C@@H](CC1CCCCC1)C(N)=O` [compound 37] (H-GNNRPVYIPRPRPPHPR[Cha]-NH2), the “MIC E. coli 45849” value (E. coli 45849) was 16 µg/mL (≈ 7.35 µM), the “MIC E. coli D31” value (E. coli D31) was 8 µg/mL (≈ 3.68 µM) and the “MIC S. typhi S5” value (S. typhi S5) was 16 µg/mL (≈ 7.35 µM). For the same compound, the “MIC R. radiobatter ATCC 15955” value [1] was 10.5 µg/mL (≈ 4.83 µM), the “MIC S. enterica subsp. Enterica serovar. typhi G10215 ATCC 700408” value [2] was 8 µg/mL (≈ 3.68 µM) and the “MIC K. Pneumonia K6, ATCC 700603” value [3] was 32 µg/mL (≈ 14.7 µM). For the same compound, the “MIC K. Pneumonia 123132” value (K. Pneumonia 123132) was 16 µg/mL (≈ 7.35 µM).
`CC[C@H](C)[C@H](NC(=O)[C@H](Cc1ccc(O)cc1)NC(=O)[C@@H](NC(=O)[C@@H]1CCCN1C(=O)[C@H](CCCNC(=N)N)NC(=O)[C@H](CC(N)=O)NC(=O)[C@H](CC(N)=O)NC(=O)[C@H](CCCN)NC(C)=O)C(C)C)C(=O)N1CCC[C@H]1C(=O)N[C@@H](CCCNC(=N)N)C(=O)N1CCC[C@H]1C(=O)N[C@@H](CCCNC(=N)N)C(=O)N1CCC[C@H]1C(=O)N1CCC[C@H]1C(=O)N[C@@H](Cc1c[nH]cn1)C(=O)N1CCC[C@H]1C(=O)N[C@@H](CCCNC(=N)N)C(=O)N(C)[C@@H](CC(C)C)C(N)=O` [compound 36] (Ac-[Orn]NNRPVYIPRPRPPHPR[NMeL]-NH2) was tested, and the “MIC E. coli 45849” value (E. coli 45849) was 4 µg/mL (≈ 1.78 µM), the “MIC E. coli D31” value (E. coli D31) was 8 µg/mL (≈ 3.56 µM) and the “MIC S. typhi S5” value (S. typhi S5) was 16 to 32 µg/mL. For the same compound, the “MIC R. radiobatter ATCC 15955” value [1] was 1.3 µg/mL (≈ 0.578 µM), the “MIC S. enterica subsp. Enterica serovar. typhi G10215 ATCC 700408” value [2] was 4 to 8 µg/mL and the “MIC K. Pneumonia K6, ATCC 700603” value [3] was 64 to 128 µg/mL. For the same compound, the “MIC K. Pneumonia 123132” value (K. Pneumonia 123132) was 32 µg/mL (≈ 14.2 µM).
With `CC[C@H](C)[C@H](NC(=O)[C@H](Cc1ccc(O)cc1)NC(=O)[C@@H](NC(=O)[C@@H]1CCCN1C(=O)[C@H](CCCNC(=N)N)NC(=O)[C@H](CC(N)=O)NC(=O)[C@H](CC(N)=O)NC(=O)[C@H](CCCN)NC(C)=O)C(C)C)C(=O)N1CCC[C@H]1C(=O)N[C@@H](CCC(N)=O)C(=O)N1CCC[C@H]1C(=O)N[C@@H](CCCNC(=N)N)C(=O)N1CCC[C@H]1C(=O)N1CCC[C@H]1C(=O)N[C@@H](Cc1c[nH]cn1)C(=O)N1CCC[C@H]1C(=O)N[C@@H](CCCNC(=N)N)C(=O)N[C@@H](Cc1ccccc1)C(N)=O` [compound 41] (Ac-[Orn]NNRPVYIPQPRPPHPRF-NH2) the “MIC E. coli 45849” value (E. coli 45849) was 4 µg/mL (≈ 1.79 µM), the “MIC E. coli D31” value (E. coli D31) was greater than 128 µg/mL and the “MIC S. typhi S5” value (S. typhi S5) was 8 µg/mL (≈ 3.57 µM). The “MIC R. radiobatter ATCC 15955” value [1] was 5.25 µg/mL (≈ 2.34 µM), the “MIC S. enterica subsp. Enterica serovar. typhi G10215 ATCC 700408” value [2] was 8 µg/mL (≈ 3.57 µM) and the “MIC K. Pneumonia K6, ATCC 700603” value [3] was 128 µg/mL (≈ 57.1 µM). The “MIC K. Pneumonia 123132” value (K. Pneumonia 123132) was 32 µg/mL (≈ 14.3 µM).
In the case of KNNRPVYIPKPRPPHPRL-NH2 [compound 21], the “MIC E. coli 45849” value (E. coli 45849) is reported as less than 0.25 µg/mL, the “MIC E. coli D31” value (E. coli D31) is reported as 8 µg/mL and the “MIC S. typhi S5” value (S. typhi S5) is reported as 1 µg/mL. The “MIC R. radiobatter ATCC 15955” value [1] was 0.65 µg/mL, the “MIC S. enterica subsp. Enterica serovar. typhi G10215 ATCC 700408” value [2] was 0.25 to 0.5 µg/mL and the “MIC E. coli BL 21 AI” value (E. coli BL 21 AI) was 1.95 to 3.91 µg/mL. For the same compound, the “MIC K. Pneumonia K6, ATCC 700603” value [3] was 8 µg/mL and the “MIC K. Pneumonia 123132” value (K. Pneumonia 123132) was 4 µg/mL.
